Experimental data taken from PubChem BioAssay AID1963422 (Molecular Pharmacology Branch, DTP, NCI, 2024).

Test system: 463943-066-T-J2-PDC complex spheroid growth
Experiment: Anticancer human tumor 463943-066-T-J2-PDC patient-derived colon adenocarcinoma cell line growth inhibition [Asc]
Details: for IC50: curve of first compound; for viability, T/C: stronger effect = lower value
Protocol: Multicellular complex tumor spheroid response to apoptosis pathway targeting inhibitors Alrizomadlin, Pelcitoclax, and Dasminapant in combination with a variety of drugs and investigational agents in selected tumor cell lines
The MDM2 inhibitor alrizomadlin, the Bcl-2/Bcl-xL inhibitor pelcitoclax, and the IAPs inhibitor dasminapant were evaluated both individually and in combination with standard of care and investigational anticancer small molecules within a complex spheroid model of solid tumors. . Complex spheroids include a stromal component modeled by human endothelial cells (HUVEC) and fibroblasts modeled by human mesenchymal stem cells (MSCs). The concentration ranges selected for each drug and investigational agent were based upon clinically achievable concentrations if the clinical Cmax of the agent was known.
Compounds. The drugs and investigational agents: alrizomadlin (APG-115; NSC831270), pelcitoclax (APG-1252; NSC835773), dasminapant (APG-1387;NSC834197), TAK-243 (NSC785004), copanlisib (NSC809693), olaparib (NSC753686), talazoparib (NSC767125), cobimetinib (NSC 768068), eltanexor (KPT-8602, NSC 794443), abemaciclib (NSC 768073), sotorasib (NSC818433), adagrasib (NSC 831453), MRTX-1133 (NSC 836407), Iadademestat (ORY1001, NSC 806812), and RMC-4630 (NSC839698), were obtained from the NCI Developmental Therapeutics Program Chemical Repository. The FDA-approved anticancer drug set is available from the Developmental Therapeutics Program at https://dtp.cancer.gov/organization/dscb/obtaining/available plates.htm. […] The stock solutions were prepared in dimethyl sulfoxide (DMSO, Sigma-Aldrich, St. Louis, MO, cat. D2650) at 800-fold the tested concentration and stored at -70 degrees C prior to their use. All drugs and investigational agents were tested over a range starting from a high concentration at or near the clinical Cmax and decreasing in half-log increments. If the clinical Cmax for an agent had not been determined, the highest concentration tested was 10 microM.
The patient-derived cancer (PDC) cell lines include five colon adenocarcinomas: 186277-243-T-J2-PDC, 616215-338-R-J1-PDC, 439559-082-T-J2-PDC, 463943-066-T-J2-PDC, and 519858-162-T-J1-PDC; three pancreatic carcinomas: 323965-272-R-J2-PDC, 521955-158-R6-J3-PDC, and 521955-158-R2-J5-PDC; two uterine sarcomas: 327498-152-R-J2-PDC and 993429-296-R-J1-PDC; two rhabdomyosarcomas: 755483-174-R-J1-PDC and 772245-204-R-J1-PDC; two soft tissue sarcomas: 126254-015-R-J1-PDC and 494315-158-R-J1-PDC; two malignant fibrous histiocytomas: 317291-083-R-J1-PDC and 596521-263-R-J1-PDC; two breast carcinomas: 171881-019-R-J1-PDC and 885512-296-R-J2-PDC; and one ovarian carcinoma: 6556581-035-R-J-PDC were obtained from the NCI PDMR, (https://pdmr.cancer.gov). The established cell lines HSSY-2 synovial sarcoma (RRID:CVCL 8719), SYO-1 synovial sarcoma (RRID:CVCL_7146), MPNST malignant peripheral neural sheath tumor were obtained from the Sloan Kettering Institute. The following established cell lines were purchased from the American Type Culture Collection (ATCC, Manassas, VA), Sor the received from the NCI repository:, PANC-1 pancreatic carcinoma (CRL-1469, RRID:CVCL_0480), OVCAR-5 ovarian carcinoma (RRID:CVCL_1628), OVCAR-8 ovarian carcinoma (RRID:CVCL_1629), , MCF-7 breast carcinoma (CRL-12584, RRID:CVCL_0031), MDA-MB-231 breast carcinoma (CRL-12532, RRID:CVCL_0062), NCI-H1876 small cell lung carcinoma (CRL-5902, RRID:CVCL_1503), NCI-H510A small cell lung carcinoma (HTB-184, RRID:CVCL_1565), NCI-H1417 (CRL-5869, RRID:CVCL_1469), and NCI-H196 small cell lung carcinoma (CRL-5823, RRID:CVCL_1509). Dr. Peter Houghton (Greehey Children's Cancer Research Institute, University of Texas Health Science Center, San Antonio, TX) provided Rh-18 rhabdomyosarcoma (RRID:CVCL_1659). Pooled donor human umbilical vein endothelial cells (HUVEC, Lonza, cat. CC-2519) and human mesenchymal stem cells (hMSC, Lonza, cat. PT-2501) were purchased from Lonza (Walkersville, MD).
Cell Culture. […]

[1] = second compound 0.00949 µM, first compound 0.00316 µM
[2] = second compound 0.00949 µM, first compound 0.01 µM
[3] = second compound 0.00949 µM, first compound 0.0316 µM
[4] = second compound 0.00949 µM, first compound 0.1 µM
[5] = second compound 0.00949 µM, first compound 0.316 µM
[6] = second compound 0.00949 µM, first compound 1 µM
[7] = second compound 0.03 µM, first compound 0.00316 µM
[8] = second compound 0.03 µM, first compound 0.01 µM
[9] = second compound 0.03 µM, first compound 0.0316 µM
[10] = second compound 0.03 µM, first compound 0.1 µM
[11] = second compound 0.03 µM, first compound 0.316 µM
[12] = second compound 0.03 µM, first compound 1 µM
[13] = second compound 0.0949 µM, first compound 0.00316 µM
[14] = second compound 0.0949 µM, first compound 0.01 µM
[15] = second compound 0.0949 µM, first compound 0.0316 µM
[16] = second compound 0.0949 µM, first compound 0.1 µM
[17] = second compound 0.0949 µM, first compound 0.316 µM
[18] = second compound 0.0949 µM, first compound 1 µM
[19] = second compound 0.3 µM, first compound 0.00316 µM
[20] = second compound 0.3 µM, first compound 0.01 µM
[21] = second compound 0.3 µM, first compound 0.0316 µM
[22] = second compound 0.3 µM, first compound 0.1 µM
[23] = second compound 0.3 µM, first compound 0.316 µM
[24] = second compound 0.3 µM, first compound 1 µM
[25] = second compound 0.949 µM, first compound 0.00316 µM
[26] = second compound 0.949 µM, first compound 0.01 µM
[27] = second compound 0.949 µM, first compound 0.0316 µM
[28] = second compound 0.949 µM, first compound 0.1 µM
[29] = second compound 0.949 µM, first compound 0.316 µM
[30] = second compound 0.949 µM, first compound 1 µM
[31] = second compound 3 µM, first compound 0.00316 µM
[32] = second compound 3 µM, first compound 0.01 µM
[33] = second compound 3 µM, first compound 0.0316 µM
[34] = second compound 3 µM, first compound 0.1 µM
[35] = second compound 3 µM, first compound 0.316 µM
[36] = second compound 3 µM, first compound 1 µM
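Also: compound exposure lasted 7 days.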
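For viability, T/C in this document: 100% = DMSO vehicle control wells.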

`CCN1CCN(Cc2ccc(Nc3ncc(F)c(-c4cc(F)c5nc(C)n(C(C)C)c5c4)n3)nc2)CC1` + CCN1C(C(=O)NC23CCC(C(=O)O)(CC2)CC3)C(c2cccc(Cl)c2F)C2(C(=O)Nc3cc(Cl)ccc32)C12CCCCC2 showed an IC50 (second compound 0.00949 µM) greater than 1000 nM, an IC50 (second compound 0.03 µM) greater than 1000 nM and an IC50 (second compound 0.0949 µM) greater than 1000 nM. For the same molecule, the IC50 (second compound 0.3 µM) was greater than 1000 nM, the IC50 (second compound 0.949 µM) was greater than 1000 nM and the IC50 (second compound 3 µM) was greater than 1000 nM. For the same molecule, the viability, T/C [1] was 99.6%, the viability, T/C [2] was 92.3% and the viability, T/C [3] was 91.4%. The viability, T/C [4] was 96.2%, the viability, T/C [5] was 110% and the viability, T/C [6] was 113%. It also gave a viability, T/C [7] of 94.8%, a viability, T/C [8] of 93.2% and a viability, T/C [9] of 92.7%. It also gave a viability, T/C [10] of 92.5%, a viability, T/C [11] of 104% and a viability, T/C [12] of 109%. The viability, T/C [13] was 91.4%, the viability, T/C [14] was 90.8% and the viability, T/C [15] was 84.2%. For the same molecule, the viability, T/C [16] was 92%, the viability, T/C [17] was 96.2% and the viability, T/C [18] was 106%. For the same molecule, the viability, T/C [19] was 85.6%, the viability, T/C [20] was 76.9% and the viability, T/C [21] was 80.3%. The viability, T/C [22] was 78%, the viability, T/C [23] was 88.9% and the viability, T/C [24] was 106%. For the same molecule, the viability, T/C [25] was 74.5%, the viability, T/C [26] was 75.5% and the viability, T/C [27] was 76.2%. For the same molecule, the viability, T/C [28] was 75.4%, the viability, T/C [29] was 81.5% and the viability, T/C [30] was 99.4%. It also gave a viability, T/C [31] of 72.5%, a viability, T/C [32] of 71.8% and a viability, T/C [33] of 71.8%. For the same molecule, the viability, T/C [34] was 74.4%, the viability, T/C [35] was 88.8% and the viability, T/C [36] was 103%.

`O=C(c1ccc(F)c(F)c1Nc1ccc(I)cc1F)N1CC(O)([C@@H]2CCCCN2)C1` + CCN1C(C(=O)NC23CCC(C(=O)O)(CC2)CC3)C(c2cccc(Cl)c2F)C2(C(=O)Nc3cc(Cl)ccc32)C12CCCCC2 showed an IC50 (second compound 0.00949 µM) of 188 nM, an IC50 (second compound 0.03 µM) of 133 nM and an IC50 (second compound 0.0949 µM) of 117 nM. It also gave an IC50 (second compound 0.3 µM) of 70.6 nM, an IC50 (second compound 0.949 µM) of 34.9 nM and an IC50 (second compound 3 µM) of 17.7 nM. For the same molecule, the viability, T/C [1] was 86.3%, the viability, T/C [2] was 78.7% and the viability, T/C [3] was 74.2%. It also gave a viability, T/C [4] of 63.5%, a viability, T/C [5] of 39.1% and a viability, T/C [6] of 27.9%. The viability, T/C [7] was 93.5%, the viability, T/C [8] was 77.5% and the viability, T/C [9] was 63.7%. The viability, T/C [10] was 56.2%, the viability, T/C [11] was 40% and the viability, T/C [12] was 29%. For the same molecule, the viability, T/C [13] was 84.5%, the viability, T/C [14] was 74.7% and the viability, T/C [15] was 65.7%. For the same molecule, the viability, T/C [16] was 50.8%, the viability, T/C [17] was 39.4% and the viability, T/C [18] was 28.2%. The viability, T/C [19] was 79.5%, the viability, T/C [20] was 65.2% and the viability, T/C [21] was 54.9%. For the same molecule, the viability, T/C [22] was 50.5%, the viability, T/C [23] was 37.8% and the viability, T/C [24] was 29.6%. For the same molecule, the viability, T/C [25] was 67.8%, the viability, T/C [26] was 60% and the viability, T/C [27] was 48.3%. For the same molecule, the viability, T/C [28] was 44.1%, the viability, T/C [29] was 39.5% and the viability, T/C [30] was 32.4%. The viability, T/C [31] was 65%, the viability, T/C [32] was 55.7% and the viability, T/C [33] was 44.2%. The viability, T/C [34] was 40.4%, the viability, T/C [35] was 36.6% and the viability, T/C [36] was 33.8%.
